In US8017654B2, “Combination cancer therapy with bis(thiohydrazide) amide compounds” (priority 2005, dated 2011):

Legend:
[1] = Phase I trial, pharmacokinetics in plasma by LC/MS during cycle 1
Procedure: Pharmacokinetic (PK) studies were performed during cycle 1 using liquid chromatography/mass spectrometry (LC/MS) to measure both compounds in plasma. Heat shock protein 70 (Hsp70) was measured in plasma before and after treatment.

[2] = co-administered with Compound (1) 44-525 mg/m2

Row | PK linearity ([1]; Compound (1) 44-525 mg/m2, unaffected by paclitaxel dose) | serious effects specifically attributable to Compound (1) (35 patients, 8 dose levels, with paclitaxel) | SMILES | Paclitaxel clearance, trend with Compound (1) dose [1, 2] | Paclitaxel terminal phase half-life, effect of Compound (1) dose [1, 2] | Paclitaxel dose limiting toxicities (in vivo)
1 | linear PK | No serious effects | CN(NC(=O)CC(=O)NN(C)C(=S)c1ccccc1)C(=S)c1ccccc1 [Compound (1)] | – | – | –
2 | – | – | CC(=O)O[C@H]1C(=O)[C@@]2(C)[C@H]([C@H](OC(=O)c3ccccc3)[C@]3(O)C[C@H](OC(=O)[C@H](O)[C@@H](NC(=O)c4ccccc4)c4ccccc4)C(C)=C1C3(C)C)[C@]1(OC(C)=O)CO[C@@H]1C[C@@H]2O [Paclitaxel, paclitaxel] | significant trend toward decreasing clearance | without affecting the terminal phase half-life | occurred in a single patient in each of the top three dose levels
